Experimental data reported in patent publication US20200377561A1, “ANTIMICROBIAL PEPTIDES AND METHODS OF TREATING GRAM-NEGATIVE PATHOGEN INFECTIONS: POLAR AND NON-POLAR FACE ANALOGS” (THE REGENTS OF THE UNIVERSITY OF COLORADO, a body corporate, priority 2017, published 2020).
Peptide text beside a SMILES is read from it.

Assays:
Type in all cases: cell-based
[1] = system: Acinetobacter baumannii NCTC 13420; conditions: cation-adjusted Mueller Hinton broth, 37° C., 16-20 hours
[2] = system: Pseudomonas aeruginosa ATCC 27853; conditions: cation-adjusted Mueller Hinton broth, 37° C., 16-20 hours
[3] = system: Staphylococcus aureus ATCC 29213; conditions: cation-adjusted Mueller Hinton broth, 37° C., 16-20 hours
[4] = system: Acinetobacter baumannii NCTC 13420; conditions: CA-MHB supplemented with 20% human serum (v/v)
Experimental: Bacterial strains were acquired from the American Type Culture Collection (ATCC, Virginia, USA) and the National Collection of Type Cultures (NCTC, Public Health England, Salisbury, UK). Minimum Inhibitory Concentration (MIC) of peptides versus gram-negative strains-Acinetobacter baumannii NCTC 13420, and Pseudomonas aeruginosa ATCC 27853 and gram-positive strain Staphylococcus aureus ATCC 29213, were determined by broth microdilution as per the guidelines of the Clinical and Laboratory Standards Institute (“Methods for Dilution Antimicrobial Susceptibility Tests for Bacteria That Grow Aerobically”; Approved Standard-Ninth Edition. CLSI document M07-A9, 2012). Peptides were dissolved in sterile distilled water, which was also used as the drug-free vehicle control when determining peptide MICs. Prior to use in the MIC protocol, bacterial strains were grown on Mueller Hinton agar at 37° C. in an ambient atmosphere. […] A fixed inoculum of the test microorganism (5×10^5 cells/mL) is also added to the plate. The MIC is determined as the lowest concentration of compound that inhibits visible bacterial growth following incubation at 37° C. for 16-20 hours. A difference in MIC of two-fold between experimental replicates is considered to be within the normal variability of this protocol. […]

Human erythrocytes = assay: Haemolysis assay using human blood; conditions: human erythrocytes, 37° C., 1 hour

For `CC(=O)N[C@H](C)C(=O)N[C@H](CC(C)C)C(=O)N[C@H](CCCCN)C(=O)N[C@H](CCCCN)C(=O)N[C@H](CC(C)C)C(=O)N[C@H](CC(C)C)C(=O)N[C@H](CCCCN)C(=O)N[C@H](CCCCN)C(=O)N[C@H](CC(C)C)C(=O)N[C@H](CO)C(=O)N[C@H](CO)C(=O)N[C@H](C)C(=O)N[C@H](CCCCN)C(=O)N[C@H](CO)C(=O)N[C@H](CO)C(=O)N[C@H](CCCCN)C(=O)N[C@H](CC(C)C)C(=O)N[C@H](CO)C(=O)N[C@H](CO)C(=O)N[C@H](CC(C)C)C(=O)N[C@H](CC(C)C)C(=O)N[C@H](CCCCN)C(=O)N[C@H](CCCCN)C(=O)N[C@H](CC(C)C)C(=O)N[C@H](CCCCN)C(=O)N[C@H](CCCCN)C(N)=O` [compound 25] (HELM PEPTIDE1{[ac].[dA].[dL].[dK].[dK].[dL].[dL].[dK].[dK].[dL].[dS].[dS].[dA].[dK].[dS].[dS].[dK].[dL].[dS].[dS].[dL].[dL].[dK].[dK].[dL].[dK].[dK].[am]}$$$$V2.0), the “Antimicrobial Activity MIC A. baumannii NCTC13420” value [1] was 2 µg/mL, the “P. aeruginosa ATCC27853 MIC” value [2] was 4 µg/mL and the “S. Aureus ATCC22213 MIC” value [3] was 128 µg/mL. The “Antimicrobial Activity MIC A. baumannii NCTC13420 plus 20% SERUM” value [4] was 4 µg/mL and the “Haemolysis HC50” value (Human erythrocytes) was over 2000 µg/mL.
